Experimental data published in patent US20100029668A1, “NOVEL PYRIDAZINE DERIVATIVES” (SYNGENTA CROP PROTECTION, INC., priority 2006, published 2010).

What was measured:
Botrvtis cinerea = test: Botrvtis cinerea/Tomato/Preventive (action against Botrytis on tomato); type: in vivo; details: Solanum lycopersicum, 72 h, preventive spray, tomato plants cv. Roter Gnom, assessed 3 days after inoculation, read-out: inhibit fungal infestation
Procedure: (§1) Botrvtis cinerea/Tomato/Preventive (Action Against Botrytis on Tomato) 4 weeks old tomato plants cv. Roter Gnom are treated with the formulated test compound in a spray chamber. Two days after application tomato plants are inoculated by spraying a spore suspension on the test plants. After an incubation period of 3 days at 20° C. and 95% r. h. in a greenhouse the disease incidence is assessed.

Alternaria solani = test: Alternaria solani/Tomato/Preventive (action against Alternaria on tomato); type: in vivo; details: 96 h, preventive spray, tomato plants cv. Roter Gnom, assessed 4 days after inoculation, read-out: inhibit fungal infestation
Procedure: as §1, with “Alternaria solani/Tomato/Preventive” for “Botrvtis cinerea/Tomato/Preventive”, “Alternaria” for “Botrytis”, “4” for “3”, “22° C./18°” for “20°”

[1] = tested on: Pyrenophora teres (Helminthosporium teres); test: Pyrenophora teres (Helminthosporium teres)/Barley/Preventive (action against net blotch on barley); type: in vivo; details: 96 h, preventive spray, barley plants cv. Regina, assessed 4 days after inoculation, read-out: inhibit fungal infestation
Procedure: Pyrenophora teres (Helminthosporium teres)/Barley/Preventive (Action Against Net Blotch on Barley) 1-week-old barley plants cv. Regina are treated with the formulated test compound in a spray chamber. Two days after application barley plants are inoculated by spraying a spore suspension (2.6×10^4 conidia/ml) on the test plants. After an incubation period of 4 days at 20° C. and 95% r. h. the disease incidence is assessed.

Uncinula necator = test: Uncinula necator/Grape/Preventive (action against powdery mildew on grape); type: in vivo; details: Erysiphe necator, 168 h, preventive spray, grape seedlings cv. Gutedel, assessed 7 days after inoculation, read-out: inhibit fungal infestation
Procedure: Uncinula necator/Grape/Preventive (Action Against Powdery Mildew on Grape) 5 weeks old grape seedlings cv. Gutedel are treated with the formulated test compound in a spray chamber. One day after application grape plants are inoculated by shaking plants infected with grape powdery mildew above the test plants. After an incubation period of 7 days at 24° C./22° C. and 70% r. h. under a light regime of 14/10 h (light/dark) the disease incidence is assessed.

Puccinia recondita = test: Puccinia recondita/Wheat/Preventive (action against brown rust on wheat); type: in vivo; details: 264 h, preventive spray, wheat plants cv. Arina, assessed 11 days after inoculation, read-out: inhibit fungal infestation
Procedure: Puccinia recondita /Wheat/Preventive (Action Against Brown Rust on Wheat) 1 week old wheat plants cv. Arina are treated with the formulated test compound in a spray chamber. One day after application wheat plants are inoculated by spraying a spore suspension ([…] uredospores/ml) on the test plants. After an incubation period of 1 day at 20° C. and 95% r. h. plants are kept for 10 days 20° C./18° C. (day/night) and 60% r.h. in a greenhouse. The disease incidence is assessed 11 days after inoculation.

[2] = tested on: Maqnaporthe grisea (Pyricularia oryzae); test: whole plant or invertebrate; type: in vivo; details: 144 h, read-out: inhibit fungal infestation

Row | Structure (SMILES) | melting point | inhibition at 200 ppm (Botrvtis cinerea) | inhibition at 200 ppm (Alternaria solani) | inhibition at 200 ppm [1] | inhibition at 200 ppm (Uncinula necator) | inhibition at 200 ppm (Puccinia recondita) | inhibition at 200 ppm [2]
1 | CSc1ccc(-c2c(C)n[nH]c(=O)c2-c2ncc(Cl)cc2Cl)nc1 [I.u.006, 4-(3,5-dichloro-pyridin-2-yl)-6-methyl-5-(5-methylsulfanyl-pyridin-2-yl)-2H-pyridazin-3-one] | 229 °C | – | – | – | – | – | –
2 | CSc1ccc(-c2c(C)nnc(Cl)c2-c2ncc(Cl)cc2Cl)nc1 [I.u.008, 3-chloro-4-(3,5-dichloro-pyridin-2-yl)-6-methyl-5-(5-methylsulfanyl-pyridin-2-yl)-pyridazine] | 163 °C | ≥ 80% | ≥ 80% | ≥ 80% | ≥ 80% | – | –
3 | COc1nnc(C)c(-c2ccc(SC)cn2)c1-c1ncc(Cl)cc1Cl [I.u.009, 4-(3,5-dichloro-pyridin-2-yl)-3-methoxy-6-methyl-5-(5-methylsulfanyl-pyridin-2-yl)-pyridazine] | 170 to 171 °C | ≥ 80% | – | – | – | ≥ 80% | –
4 | CSc1ccc(-c2c(C)nnc(C)c2-c2ncc(Cl)cc2Cl)nc1 [I.u.010, 4-(3,5-dichloro-pyridin-2-yl)-3,6-dimethyl-5-(5-methylsulfanyl-pyridin-2-yl)-pyridazine] | – | – | – | ≥ 80% | – | – | ≥ 80%
